Legend:
[1] = molecular target: T1, Serine/threonine-protein kinase Sgk2 (Homo sapiens) (UniProt Q9HBY8); test: Inhibition of SGK2 (unknown origin) assessed as residual activity at 1000 nM by KINOMEscan analysis relative to control
T1 sequence (whole entry): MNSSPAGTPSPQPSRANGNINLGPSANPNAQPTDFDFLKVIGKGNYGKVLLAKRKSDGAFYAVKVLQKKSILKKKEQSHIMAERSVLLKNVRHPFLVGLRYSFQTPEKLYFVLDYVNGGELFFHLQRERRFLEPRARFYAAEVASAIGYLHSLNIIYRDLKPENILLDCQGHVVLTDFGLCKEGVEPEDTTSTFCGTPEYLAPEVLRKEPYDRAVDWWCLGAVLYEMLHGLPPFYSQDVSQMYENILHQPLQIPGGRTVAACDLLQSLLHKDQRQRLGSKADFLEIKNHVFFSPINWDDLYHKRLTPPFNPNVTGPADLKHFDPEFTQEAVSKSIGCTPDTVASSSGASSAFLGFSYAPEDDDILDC

[2] = molecular target: Myosin light chain kinase, smooth muscle (Homo sapiens) (UniProt Q15746); test: Inhibition of MLCK (unknown origin) assessed as residual activity at 1000 nM by KINOMEscan analysis relative to control
[3] = molecular target: RAF proto-oncogene serine/threonine-protein kinase (Homo sapiens) (UniProt P04049); test: Inhibition of RAF1 (unknown origin) assessed as residual activity at 1000 nM by KINOMEscan analysis relative to control
Chain of RAF proto-oncogene serine/threonine-protein kinase (Homo sapiens) (P04049 whole entry): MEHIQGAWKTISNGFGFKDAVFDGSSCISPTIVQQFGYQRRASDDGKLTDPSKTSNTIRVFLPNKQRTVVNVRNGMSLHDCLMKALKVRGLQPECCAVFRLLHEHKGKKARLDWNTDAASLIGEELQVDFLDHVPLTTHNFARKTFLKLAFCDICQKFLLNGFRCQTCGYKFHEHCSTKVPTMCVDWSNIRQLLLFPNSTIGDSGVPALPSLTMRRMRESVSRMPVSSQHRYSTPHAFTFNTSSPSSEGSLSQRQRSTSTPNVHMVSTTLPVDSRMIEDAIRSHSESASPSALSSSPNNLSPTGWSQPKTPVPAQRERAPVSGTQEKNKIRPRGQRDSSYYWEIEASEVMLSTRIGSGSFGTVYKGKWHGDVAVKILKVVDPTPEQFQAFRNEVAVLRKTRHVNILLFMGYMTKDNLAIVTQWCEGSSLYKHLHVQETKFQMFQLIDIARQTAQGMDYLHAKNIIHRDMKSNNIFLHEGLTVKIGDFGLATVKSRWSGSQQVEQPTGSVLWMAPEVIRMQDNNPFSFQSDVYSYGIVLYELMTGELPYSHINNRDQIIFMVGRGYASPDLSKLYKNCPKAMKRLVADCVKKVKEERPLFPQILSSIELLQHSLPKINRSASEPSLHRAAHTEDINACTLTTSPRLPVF

[4] = molecular target: Activin receptor type-2B (Homo sapiens) (UniProt Q13705); test: Inhibition of ACVR2B (unknown origin) assessed as residual activity at 1000 nM by KINOMEscan analysis relative to control
Chain of Activin receptor type-2B (Homo sapiens) (Q13705 whole entry): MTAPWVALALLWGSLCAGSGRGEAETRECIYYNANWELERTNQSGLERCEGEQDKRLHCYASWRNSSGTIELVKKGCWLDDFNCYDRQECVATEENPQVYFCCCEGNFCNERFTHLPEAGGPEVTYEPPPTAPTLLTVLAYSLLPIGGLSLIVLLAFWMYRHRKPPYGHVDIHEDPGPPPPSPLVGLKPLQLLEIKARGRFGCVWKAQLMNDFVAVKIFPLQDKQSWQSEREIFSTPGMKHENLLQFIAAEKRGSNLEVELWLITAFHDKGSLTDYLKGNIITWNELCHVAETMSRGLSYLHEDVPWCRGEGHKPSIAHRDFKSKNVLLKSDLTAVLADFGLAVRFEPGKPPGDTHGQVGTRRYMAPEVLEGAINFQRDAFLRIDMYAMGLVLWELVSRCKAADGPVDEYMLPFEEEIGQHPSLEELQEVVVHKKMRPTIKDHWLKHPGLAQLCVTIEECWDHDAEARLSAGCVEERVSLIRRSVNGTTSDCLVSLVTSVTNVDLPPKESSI

[5] = molecular target: Mitogen-activated protein kinase kinase kinase 10 (Homo sapiens) (UniProt Q02779); test: Inhibition of MLK2 (unknown origin) assessed as residual activity at 1000 nM by KINOMEscan analysis relative to control
Chain of Mitogen-activated protein kinase kinase kinase 10 (Homo sapiens) (Q02779 whole entry, looked up): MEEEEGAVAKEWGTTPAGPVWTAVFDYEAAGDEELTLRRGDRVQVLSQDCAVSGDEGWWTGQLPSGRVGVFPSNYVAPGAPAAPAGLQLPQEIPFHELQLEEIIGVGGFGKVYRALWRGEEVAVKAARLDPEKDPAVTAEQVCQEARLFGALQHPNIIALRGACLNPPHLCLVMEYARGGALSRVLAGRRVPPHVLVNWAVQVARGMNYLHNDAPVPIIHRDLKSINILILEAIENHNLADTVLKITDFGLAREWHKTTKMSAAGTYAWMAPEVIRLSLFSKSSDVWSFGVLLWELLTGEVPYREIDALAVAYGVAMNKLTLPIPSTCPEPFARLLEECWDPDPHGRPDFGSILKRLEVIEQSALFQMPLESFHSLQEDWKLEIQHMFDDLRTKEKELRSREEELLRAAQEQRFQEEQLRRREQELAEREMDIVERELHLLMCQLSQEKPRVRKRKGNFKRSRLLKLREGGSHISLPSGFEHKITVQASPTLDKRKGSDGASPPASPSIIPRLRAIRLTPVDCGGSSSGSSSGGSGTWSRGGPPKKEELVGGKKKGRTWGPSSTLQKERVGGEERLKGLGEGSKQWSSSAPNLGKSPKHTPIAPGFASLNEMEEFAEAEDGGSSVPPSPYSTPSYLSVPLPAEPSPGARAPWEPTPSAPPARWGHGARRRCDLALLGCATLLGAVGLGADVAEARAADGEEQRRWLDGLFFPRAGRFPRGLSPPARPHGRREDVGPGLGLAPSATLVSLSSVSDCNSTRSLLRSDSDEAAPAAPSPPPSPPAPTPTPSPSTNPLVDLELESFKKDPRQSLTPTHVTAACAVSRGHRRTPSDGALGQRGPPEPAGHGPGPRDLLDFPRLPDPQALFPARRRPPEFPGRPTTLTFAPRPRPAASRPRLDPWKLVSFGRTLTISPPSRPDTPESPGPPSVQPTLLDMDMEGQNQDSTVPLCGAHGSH

[6] = molecular target: Cyclin-dependent kinase 15 (Homo sapiens) (UniProt Q96Q40); test: Inhibition of PFTAIRE2 (unknown origin) assessed as residual activity at 1000 nM by KINOMEscan analysis relative to control
Chain of Cyclin-dependent kinase 15 (Homo sapiens) (Q96Q40 whole entry): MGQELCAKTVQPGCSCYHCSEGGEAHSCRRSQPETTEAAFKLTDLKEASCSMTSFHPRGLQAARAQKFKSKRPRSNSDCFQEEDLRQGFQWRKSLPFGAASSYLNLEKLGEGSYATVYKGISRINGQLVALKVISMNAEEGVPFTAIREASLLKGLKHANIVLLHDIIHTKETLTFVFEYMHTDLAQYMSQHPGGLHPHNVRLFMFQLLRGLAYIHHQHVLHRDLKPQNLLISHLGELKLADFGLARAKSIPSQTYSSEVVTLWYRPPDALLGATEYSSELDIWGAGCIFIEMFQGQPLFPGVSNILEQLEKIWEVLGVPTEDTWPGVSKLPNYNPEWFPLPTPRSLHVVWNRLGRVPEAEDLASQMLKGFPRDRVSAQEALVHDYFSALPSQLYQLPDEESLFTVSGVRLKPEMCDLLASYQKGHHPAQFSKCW

[7] = molecular target: T2, MAP/microtubule affinity-regulating kinase 4 (Homo sapiens) (UniProt Q96L34); test: Inhibition of MARK4 (unknown origin) assessed as residual activity at 1000 nM by KINOMEscan analysis relative to control
T2 sequence (whole entry): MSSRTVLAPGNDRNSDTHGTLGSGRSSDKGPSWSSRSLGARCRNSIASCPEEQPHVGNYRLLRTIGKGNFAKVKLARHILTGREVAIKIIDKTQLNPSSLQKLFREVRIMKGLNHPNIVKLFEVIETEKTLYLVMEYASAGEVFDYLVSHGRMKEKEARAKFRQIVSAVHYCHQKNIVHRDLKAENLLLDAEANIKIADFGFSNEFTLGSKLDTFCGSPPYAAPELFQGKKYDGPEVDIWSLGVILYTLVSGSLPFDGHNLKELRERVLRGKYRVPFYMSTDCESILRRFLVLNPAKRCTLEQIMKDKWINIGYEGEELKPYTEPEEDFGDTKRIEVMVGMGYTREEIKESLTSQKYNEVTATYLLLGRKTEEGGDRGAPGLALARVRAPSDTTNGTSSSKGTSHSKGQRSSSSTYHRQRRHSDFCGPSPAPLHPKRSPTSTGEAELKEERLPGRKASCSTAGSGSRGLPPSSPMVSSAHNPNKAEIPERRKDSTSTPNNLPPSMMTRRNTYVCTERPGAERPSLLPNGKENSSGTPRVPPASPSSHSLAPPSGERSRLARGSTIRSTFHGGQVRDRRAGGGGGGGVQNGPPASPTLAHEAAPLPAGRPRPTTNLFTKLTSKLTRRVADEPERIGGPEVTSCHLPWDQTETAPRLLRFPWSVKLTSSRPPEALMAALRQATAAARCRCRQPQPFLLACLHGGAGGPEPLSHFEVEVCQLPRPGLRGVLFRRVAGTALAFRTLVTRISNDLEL

[8] = molecular target: T3, Serine/threonine-protein kinase NLK (Homo sapiens) (UniProt Q9UBE8); test: Inhibition of NLK (unknown origin) assessed as residual activity at 1000 nM by KINOMEscan analysis relative to control
T3 sequence (whole entry): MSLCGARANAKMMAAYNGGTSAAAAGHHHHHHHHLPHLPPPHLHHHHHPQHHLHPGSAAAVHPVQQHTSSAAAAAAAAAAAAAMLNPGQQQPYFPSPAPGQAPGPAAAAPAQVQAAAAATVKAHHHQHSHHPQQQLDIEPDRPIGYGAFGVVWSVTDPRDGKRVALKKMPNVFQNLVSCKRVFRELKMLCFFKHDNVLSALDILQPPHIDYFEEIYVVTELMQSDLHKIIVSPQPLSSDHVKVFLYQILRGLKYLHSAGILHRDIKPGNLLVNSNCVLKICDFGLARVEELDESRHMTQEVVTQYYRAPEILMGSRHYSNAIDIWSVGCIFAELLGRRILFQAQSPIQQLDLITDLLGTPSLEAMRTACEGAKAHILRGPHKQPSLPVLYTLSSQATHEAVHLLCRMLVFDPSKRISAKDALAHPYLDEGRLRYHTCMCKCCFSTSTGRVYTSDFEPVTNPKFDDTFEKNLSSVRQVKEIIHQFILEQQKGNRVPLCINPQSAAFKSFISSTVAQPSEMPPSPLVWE

[9] = molecular target: Mitotic checkpoint serine/threonine-protein kinase BUB1 (Homo sapiens) (UniProt O43683); test: Inhibition of BUB1 (unknown origin) assessed as residual activity at 1000 nM by KINOMEscan analysis relative to control
Chain of Mitotic checkpoint serine/threonine-protein kinase BUB1 (Homo sapiens) (O43683 whole entry, looked up): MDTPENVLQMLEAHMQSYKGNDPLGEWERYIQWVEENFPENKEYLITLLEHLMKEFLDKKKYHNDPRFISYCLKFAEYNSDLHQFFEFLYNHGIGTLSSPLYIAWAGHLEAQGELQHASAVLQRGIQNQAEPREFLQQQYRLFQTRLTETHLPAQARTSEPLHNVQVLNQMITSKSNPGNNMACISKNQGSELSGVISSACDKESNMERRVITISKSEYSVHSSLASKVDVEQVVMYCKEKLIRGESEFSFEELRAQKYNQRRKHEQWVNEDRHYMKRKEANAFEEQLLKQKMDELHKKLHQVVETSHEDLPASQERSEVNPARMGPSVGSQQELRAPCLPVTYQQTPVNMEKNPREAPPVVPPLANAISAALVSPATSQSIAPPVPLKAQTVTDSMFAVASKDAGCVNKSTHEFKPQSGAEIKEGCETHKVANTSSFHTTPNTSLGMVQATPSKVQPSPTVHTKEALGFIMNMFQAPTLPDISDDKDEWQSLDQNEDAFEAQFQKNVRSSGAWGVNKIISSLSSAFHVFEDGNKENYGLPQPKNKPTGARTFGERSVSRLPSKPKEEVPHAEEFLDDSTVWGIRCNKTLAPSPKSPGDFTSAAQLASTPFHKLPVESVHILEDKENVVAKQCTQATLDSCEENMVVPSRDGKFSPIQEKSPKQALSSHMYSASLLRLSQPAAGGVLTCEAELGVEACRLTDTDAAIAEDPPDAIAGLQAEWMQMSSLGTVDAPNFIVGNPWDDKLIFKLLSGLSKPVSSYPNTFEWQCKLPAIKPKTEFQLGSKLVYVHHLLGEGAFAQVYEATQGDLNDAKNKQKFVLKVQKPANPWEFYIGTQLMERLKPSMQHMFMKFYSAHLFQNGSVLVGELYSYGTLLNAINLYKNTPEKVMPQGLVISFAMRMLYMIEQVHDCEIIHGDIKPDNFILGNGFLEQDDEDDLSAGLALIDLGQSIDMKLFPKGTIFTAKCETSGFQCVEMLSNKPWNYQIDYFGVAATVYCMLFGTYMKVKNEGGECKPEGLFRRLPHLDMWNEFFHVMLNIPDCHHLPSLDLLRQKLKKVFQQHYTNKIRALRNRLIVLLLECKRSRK

[10] = molecular target: Serine/threonine-protein kinase pim-2 (Homo sapiens) (UniProt Q9P1W9); test: Inhibition of PIM2 (unknown origin) assessed as residual activity at 1000 nM by KINOMEscan analysis relative to control
Chain of Serine/threonine-protein kinase pim-2 (Homo sapiens) (Q9P1W9 whole entry, looked up): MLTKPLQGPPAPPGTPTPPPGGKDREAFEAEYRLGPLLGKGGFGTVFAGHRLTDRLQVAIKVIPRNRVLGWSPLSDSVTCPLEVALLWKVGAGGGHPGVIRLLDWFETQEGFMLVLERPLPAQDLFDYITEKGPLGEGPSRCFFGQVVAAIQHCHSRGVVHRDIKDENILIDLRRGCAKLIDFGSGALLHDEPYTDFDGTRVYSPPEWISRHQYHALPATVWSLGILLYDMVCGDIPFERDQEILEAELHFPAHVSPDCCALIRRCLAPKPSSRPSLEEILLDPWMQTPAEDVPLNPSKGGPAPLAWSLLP

COc1cc2nc(C)nc(N[C@H](C)c3cccc(-c4cn[nH]c4)c3)c2cc1OC
Activity [1]: 94% | Activity [2]: 100% | Activity [3]: 100% | Activity [4]: 91% | Activity [5]: 42% | Activity [6]: 94% | Activity [7]: 88% | Activity [8]: 54% | Activity [9]: 100% | Activity [10]: 88%

COc1cc2ncnc(N[C@H](C)c3cccc4ccccc34)c2cc1OC
Activity [1]: 51% | Activity [2]: 100% | Activity [3]: 94% | Activity [4]: 100% | Activity [5]: 97% | Activity [6]: 100% | Activity [7]: 66% | Activity [8]: 86% | Activity [9]: 100% | Activity [10]: 96%
